{"source": "patent US9855273B2", "about": "“Combination therapy for MDS” (priority 2013, dated 2018)", "key": {"[1]": {"test_system": "MDS/AML cell lines (MDSL, TF1, THP1, HL60)", "test": "Viable cell growth (trypan blue exclusion) of MDS/AML cell lines", "format": "cell-based, human", "conditions": "IRAK-Inh 10 μM, ABT-263 0.1 μM", "method": "Acute myeloid leukemic cell lines, HL60, THP1, and TF-1 were purchased from the American Type Culture Collection. MOLM13 were purchased from AddexBio. The myelodysplastic cell line, MDS-L, was provided by Dr. Kaoru Tohyama (Kawasaki Medical School, Okayama, Japan) (Matsuoka et al., 2010). […] Additionally, both the MDSL and TF-1 cell lines were cultured in the presence of 10 ng/mL human recombinant IL-3 (Stemcell Technologies)."}, "[2]": {"test_system": "MDSL cells", "test": "MDSL xenograft, cells pre-treated in vitro, NSGS mice", "format": "in vivo", "conditions": "MDSL treated in vitro with IRAK-Inh 10 μM and/or ABT-263 0.1 μM; DMSO 28 days", "method": "Xenograftment of NOD/SCID-IL2Rγ(NSG) and NSG-hSCF/hGM-CSF/hIL3 (NSGS) MDSL cells (1×10^6-5×10^6) were injected into the tail veins of 8-week old sublethally irradiated ([…]) NSG or NSG animals engineered to express human SCF, GM-CSF, and IL3 (NSGS) as previously described (Wunderlich et al., 2010). Mice were monitored by performing complete blood counts (Drew Hemavet 950FS). Following red cell lysis, human MDSL cells were identified by hCD45-FITC staining. In vivo delivery of IRAK-Inh approach is adapted from previous reports (Yang et al., 2011): IRAK-Inh was diluted in DMSO (5 mM) and further dissolved in sterile phosphate buffered saline (PBS; pH 7.2). Animals were injected i.p. with 2.12 mg/kg IRAK-Inh 3× weekly.\nTo determine whether IRAK-Inh can delay human MDS-like disease in vivo, MDSL were pre-treated with IRAK-Inh (10 μM) for 24 hrs in vitro and subsequently injected intravenously (i.v.) into NSG (5×10^6 cells) and NSGS (1×10^6 cells) recipient mice (FIG. 4A). This approach permitted us to evaluate the cell autonomous effect of IRAK-Inh on MDS cell viability and engraftment without altering endogenous IRAK1 function in the mouse.\nMoreover, we investigated whether combined IRAK1 and BCL2 inhibition could delay human MDS-like disease in vivo. MDSL cells were treated with IRAK-Inh (10 μM) and/or ABT-263 (0.1 μM) for 48 hrs in vitro and subsequently injected i.v. into NSGS mice (FIG. 4A)."}, "[3]": {"test_system": "normal CD34+ cells", "test": "Colony formation in methylcellulose, normal CD34+ cells", "conditions": "individual or combination treatment", "description": "The effect of IRAK-Inh on leukemic progenitor function was evaluated in methylcellulose containing IRAK-Inh. […] As an alternative approach, MDS/AML cells were pre-treated with IRAK-Inh for 24 hours and then plated in methylcellulose."}}, "data": [{"compound": "CC1(C)CCC(c2ccc(Cl)cc2)=C(CN2CCN(c3ccc(C(=O)NS(=O)(=O)c4ccc(N[C@H](CCN5CCOCC5)CSc5ccccc5)c(S(=O)(=O)C(F)(F)F)c4)cc3)CC2)C1", "note": "[ABT-263]", "values": [{"measurement": "sensitivity of HL60 cells", "setting": "[1]; HL60, alone or combined", "result": "refractory"}, {"measurement": "MDS/AML cell line growth and survival", "setting": "[1]; alone or co-treatment", "result": "modest effects"}, {"measurement": "median survival", "setting": "[2]", "result": "~35", "unit": "days"}, {"measurement": "viability and hematopoietic progenitor function of normal CD34+ cells", "setting": "[3]", "result": "not affected"}]}]}
